Measured values taken from paper PMC5489165, “Identification of benzazole compounds that induce HIV-1 transcription” (PLoS ONE, 2017).

What was measured:
[1] = tested on: HIV-1 RNA in U1 cells; assay: HIV-1 transcription in U1 cells (qRT-PCR); format: cell-based; settings: 30 μM, 24 h, qRT-PCR (Fig 3)
Experimental: ACH-2 cells were maintained in RPMI-1640 medium without phenol red and with 10% FBS at 37°C in a 5% CO2 atmosphere. Cells were plated at 5000/well in 96-well round-bottom plated and test compounds were added in a final concentration of 0.5% DMSO, in duplicate. Cells were incubated for 24 h at 37°C, 5% CO2, then pelleted at 2000 × g for 5 min followed by washing in 0.1 ml PBS. RNA was isolated using Invitrogen PureLink 96 RNA Purification Kit with vacuum manifold per the manufacturer’s instructions, including DNase I treatment. HIV-1 transcripts were detected using TaqMan® RNA-to-CT™ 1-step kit (Applied Biosystems, Foster City, CA) and primers/probe specific to gag (SK38 forward: 5ʹ-[…]-3ʹ; SK39 reverse: 5ʹ-[…]-3ʹ; SK19 probe: 5ʹ-6FAM […] TAMRA-3ʹ) or tat (forward: 5ʹ-[…]-3ʹ; reverse: 5ʹ-[…]-3ʹ; probe: 5ʹ-6FAM […]-3ʹ). GAPDH RNA was monitored in all assays as an endogenous control for selectivity using a pre-developed TaqMan assay reagent (Applied Biosystems, Foster City, CA). RNA was quantified on an Applied Biosystems 7900HT. PCR replicates were performed for each biological replicate. Viral RNA expression was normalized to GAPDH RNA and data are expressed as the change from vehicle-only control wells.
Fig 3 Compounds 1 and 2 induce HIV-1 transcription in ACH-2 and U1. […] RNA was prepared and HIV expression was monitored by qRT-PCR. […]

[2] = tested on: Kaposi's sarcoma associated herpesvirus (KSHV) in BCP-1 cells; assay: KSHV activation assay in BCP-1 cells (ORF50 qRT-PCR); format: cell-based; settings: 24 h, up to 100 μM
[3] = Microsome assay, mouse liver microsomes; format: in vitro ADME
Experimental: (§1) Human and mouse liver microsomes were obtained from XenoTech, LLC (Kansas City, KS). The reaction mixture was composed of liver microsomes (0.5 mg/mL), 20 mM Tris-HCl pH 7.4, 2.5 mM MgCl2, and an NADPH generating system (0.1 mM NADP, 1.2 mM glucose-6-phosphate and 0.3 units/ml glucose-6-phophate dehydrogenase). […] Test compounds were added to the microsome reaction and loss of parent molecule was monitored after 1 h by LC/MS/MS.

[4] = tested on: HeLa nuclear extracts, HDAC1, HDAC2, HDAC3, HDAC8; assay: HDAC inhibition assay (fluorometric); format: biochemical; settings: 10 μM
Experimental: HDAC inhibition was determined using HDAC Fluorometric Activity Assay/Drug Discovery Kit (BIOMOL International, Inc.) according to the manufacturer’s recommendations. HeLa cell nuclear extracts and purified HDACs 1, 2, 3, and 8 were obtained from BIOMOL. Briefly, HDAC inhibitors and test compounds were diluted to 5× concentration in assay buffer in a white, flat-bottom 96-well plate. HDAC samples (purified HDAC or HeLa nuclear extract) were diluted to the desired concentration in assay buffer and added to each well. HeLa extract was employed at a 150-fold dilution, while individual HDACs were tested at 0.3–9 μg/ml. Fluor de Lys™ substrate was diluted to 2× concentration in assay buffer and the HDAC reaction was initiated by addition of substrate to each well followed by incubation for 60 min at room temperature. A final concentration of 0.4% DMSO and 50 μM Fluor de Lys™ substrate was present in all samples. Samples with no enzyme were used as blanks and vehicle-only samples were used as negative controls. HDAC reactions were quenched by adding Fluor de Lys™ developer containing 2 μM trichostatin A. Plates were incubated at room temperature for 15 min prior to reading fluorescence for 0.1 s with an excitation wavelength of 360 nm and emission of 460 nm using a 5 nm slit on a Cary Eclipse Fluorescence Spectrophotometer (Varian, Inc.). […]

[5] = Protein binding, mouse plasma (ultrafiltration); format: in vitro ADME; settings: mouse, plasma, pH 7.4
Experimental: Binding of test compound to plasma proteins was estimated by incubation of test compounds with mouse or human plasma. Human plasma was obtained from BioreclamationIVT (Westbury, NY). […] After a 15 min incubation at 37°C, triplicate aliquots of the incubation mixtures were transferred to a Millipore Multiscreen Ultracel-10 filter plate (10 kDa molecular mass cut off, EMD Millipore, Billerica, MA). The plate was centrifuged for 60 min at 3000 × g and 37°C. After centrifugation, aliquots of both the ultrafiltrates as well as the incubation mixtures prior to ultrafiltration were analyzed by LC-MS/MS to quantify the concentrations of test compound and reference compounds.

[6] = tested on: HIV-1 transcription in 24STNLSG cells; assay: SEAP assay in 24STNLSG cells (latency reactivation); format: cell-based; settings: 72 h; for Max. fold induction, 24STNLSG: SEAP reporter; for EC2X, 24STNLSG: concentration for 2-fold increase in SEAP activity
Experimental: SupT1-derived 24STNLSG cells were plated at 100,000 cells/well in black bottom/black walled 96-well plates in 50 μl RPMI-1640 medium (without phenol red) containing 10% FBS. Compound was added in 50 μl of identical medium using three-fold dose-response dilutions, in duplicate. […] TNF-α, a nuclear factor-κB (NF-κB) activator known to induce HIV- expression in cellular models, was used as a positive control. Plates were incubated for 72 h at 37°C, 5% CO2. Plates were then sealed and heated to 65°C for 30 min. Plates were brought to room temperature and 50 μl assay buffer (1 mM MgCl2, 10 mM L-homoarginine, 1 M diethylamine hydrochloride) was added to each well and incubated for 5 min at room temperature. To each well, 50 μl of CSPD Substrate (0.4 mM Ready-to-Use with Sapphire-II Enhancer; Applied Biosystems, Foster City, CA) was added. Plates were incubated for 20 min at room temperature and read on a ViewLux microplate imager (Perkin Elmer, Waltham, MA). Curves were fit by non-linear regression using Prism software (GraphPad, San Diego, CA).

[7] = Microsome assay, human liver microsomes; format: in vitro ADME
Experimental: as §1

[8] = Cytotoxicity assay in stimulated PBMCs (ATP, CellTiter-Glo); format: cell-based; settings: PBMCs stimulated with PHA and IL-2, ATP quantification
Experimental: SupT1 cells were plated at 100,000 per well in 96-well, white-walled plates with serial dilutions of test compound in a total volume of 100 μl RPMI-1640 medium containing 10% FBS and 0.5% DMSO. PBMCs were plated similarly at 50,000 cells/well and stimulated by addition of 40 μg/ml PHA and 80 ng/ml interleukin-2 (IL-2). Cells were incubated for 72 h at 37°C, 5% CO2. ATP was quantified using the CellTiter-Glo Luminescent Cell Viability Assay (Promega, Madison, WI) on a ViewLux microplate imager (Perkin Elmer, Waltham, MA). Percent cytotoxicity was determined relative to vehicle-only treated wells.

Row | SMILES | Induction of HIV-1 transcription in U1 cells (in words) [1] | Effect on ORF50 mRNA (KSHV) [2] | MLM stability (% loss of parent compound at 1 h) [3] [%] | HDAC inhibitory activity (in words) [4] | fraction unbound at 15 min, 10 μM [5] | Max. fold induction, 24STNLSG [6] | EC2X, 24STNLSG [6] [µM] | HLM stability (% loss of parent compound at 1 h) [7] [%] | CC50 at 72 h [8] [µM] | Max. fold induction, 24STNLSG ([6]; listed as Cmpd 1) [fold]
1 | Nc1ccc2[nH]c(-c3ccc(-c4nc5ccc(N)cc5o4)cc3)nc2c1 [Compound 2] | induced HIV-1 transcription | little effect | 53 | no HDAC inhibitory activity | < 0.025 | 76 fold | 2.7 ± 2.3 | 61 | > 100 | 
2 | Nc1ccc2[nH]c(-c3ccc(-c4nc5cc(N)ccc5o4)cc3)nc2c1 [Compound 1, 2-(4-(5-amino-1H-benzimidazol-2-yl)phenyl)benzoxazol-5-amine] | induced HIV-1 transcription | little effect | 28 | no HDAC inhibitory activity | < 0.03 | up to 80 fold | 1.5 ± 0.7 | 57 | 18 ± 6.8 | 80
